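1) Cells in 96-well plates. 2) Compound, 48 h, 5 concentrations. 3) Linear interpolation between surrounding doses. 4) Unreached endpoint = highest concentration. TGI: total growth inhibition.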
Columns and labels:
Assay in all cases: NCI-60 cell line screen, 48 h
[1] = test system: IGROV1 ovarian
[2] = test system: CAKI-1 renal
[3] = test system: SK-MEL-28 melanoma
[4] = test system: K-562 leukemia
[5] = test system: MCF7 breast
[6] = test system: SR leukemia
[7] = test system: U251 CNS
[8] = test system: SNB-19 CNS
[9] = test system: RXF 393 renal
[10] = test system: HS 578T breast
[11] = test system: RPMI-8226 leukemia
[12] = test system: OVCAR-4 ovarian
[13] = test system: SN12C renal
[14] = test system: HCT-116 colon
[15] = test system: PC-3 prostate
[16] = test system: HOP-92 NSCLC
[17] = test system: NCI-H23 lung
[18] = test system: M14 melanoma
[19] = test system: OVCAR-3 ovarian

Row | SMILES | TGI [1] [µM] | TGI [2] [µM] | TGI [3] [µM] | TGI [4] [µM] | TGI [5] [µM] | TGI [6] [µM] | TGI [7] [µM] | TGI [8] [µM] | TGI [9] [µM] | TGI [10] [µM] | TGI [11] [µM] | TGI [12] [µM] | TGI [13] [µM] | TGI [14] [µM] | TGI [15] [µM] | TGI [16] [µM] | TGI [17] [µM] | TGI [18] [µM] | TGI [19] [µM]
1 | CC(C)CC(=O)NC(NC(C)C)(C(F)(F)F)C(F)(F)F | > 100 | > 100 | > 100 | > 100 | > 100 | > 100 | > 100 | > 100 | > 100 | > 100 | > 100 | > 100 | > 100 | > 100 | > 100 | > 100 | – | – | –
2 | O=C(CCc1ccc(O)c(O)c1)NCCc1cc(OCc2ccccc2)cc(OCc2ccccc2)c1 | 22.5 | 17.7 | 46.3 | > 100 | 32.2 | 7.18 | > 100 | 18 | 36.8 | 40.2 | > 100 | – | 28.6 | 31.6 | 29.8 | 35.6 | 31 | 34 | > 100
3 | CCN(CC)Cc1nc(C2CCC([N+](=O)[O-])O2)no1 (configuration not stated) | > 100 | > 100 | 53.8 | > 100 | 32.2 | > 100 | 62.3 | 87.8 | 86.8 | 82.4 | > 100 | > 100 | > 100 | 60.4 | > 100 | > 100 | 41.7 | 28.3 | 56.7
4 | CC1(C)CN=C(Nc2ccc(Cl)cc2)S1 | > 100 | > 100 | > 100 | > 100 | > 100 | > 100 | > 100 | > 100 | > 100 | > 100 | > 100 | > 100 | > 100 | > 100 | > 100 | > 100 | > 100 | > 100 | > 100
5 | CC(=O)NCCc1c[nH]c2ccc(Cl)cc12 | > 100 | > 100 | > 100 | > 100 | > 100 | > 100 | > 100 | > 100 | > 100 | > 100 | > 100 | > 100 | > 100 | > 100 | > 100 | > 100 | > 100 | > 100 | > 100
6 | CN(C)C=Nc1cccc2cnccc12 | > 100 | > 100 | > 100 | > 100 | > 100 | > 100 | > 100 | > 100 | > 100 | > 100 | > 100 | > 100 | > 100 | > 100 | > 100 | > 100 | > 100 | > 100 | > 100
7 | O=C1c2ccccc2C(=O)N1CCCCCCNOCCCN1C(=O)c2ccccc2C1=O | > 100 | > 100 | > 100 | 98.2 | 88.4 | > 100 | > 100 | > 100 | > 100 | > 100 | 99.4 | 93.3 | > 100 | > 100 | > 100 | > 100 | 97.1 | 61.4 | > 100
8 | O=C(Nc1ccccc1C(=O)O)/C(=C/c1ccccc1)NC(=O)c1ccccc1 | > 100 | > 100 | > 100 | > 100 | > 100 | > 100 | > 100 | > 100 | > 100 | > 100 | > 100 | – | > 100 | > 100 | > 100 | > 100 | > 100 | > 100 | > 100
9 | Cc1ccc(S(=O)(=O)Oc2ccc(OS(=O)(=O)c3ccc(C)cc3)c3c2C(=O)c2ccccc2C3=O)cc1 | > 100 | > 100 | > 100 | > 100 | > 100 | > 100 | > 100 | > 100 | 68.6 | > 100 | – | > 100 | > 100 | > 100 | > 100 | > 100 | > 100 | > 100 | > 100
10 | CCOC(=O)c1cc2c([nH]1)C(=O)CC1=C2CCN1Cc1ccccc1 | 36 | 15 | 32.7 | 25.9 | 32.3 | 33.4 | 25.4 | 31.8 | 30.5 | 57.4 | 16.6 | 26.8 | 35.3 | 25.8 | 47.2 | 28.3 | 29.6 | – | –
11 | CCCCNC(=O)Nc1c(C(N)=O)c2n(c1C(=O)OCC)CCCCC2 | > 100 | > 100 | > 100 | > 100 | > 100 | > 100 | > 100 | > 100 | > 100 | > 100 | > 100 | > 100 | – | > 100 | > 100 | > 100 | > 100 | > 100 | –
12 | CC1C/C(=N\N(C)C)C(C#N)(C#N)C1(C#N)C#N (configuration not stated) | 38.8 | 3.38 | > 78.6 | > 100 | 83.8 | 17.2 | 40.1 | > 70.6 | 23.9 | > 88.3 | 25.5 | 25.6 | 34.4 | 38.4 | 47.2 | 11.6 | 43.1 | 31.7 | 33.9
13 | Cc1c(CCCl)c(N=[N+]=[N-])n2c(nc3ccccc32)c1C#N | 1.64 | 3 | 3.27 | 1.48 | 2.14 | 1.08 | 6.02 | 8.37 | 2.85 | 2.43 | 2.33 | 3.54 | 3.13 | 1.55 | 2.72 | 2.61 | 2.95 | 2.77 | 3.15
14 | CN(C)CCCNc1nnc(NCCCN(C)C)c2c(=O)c3sccc3[nH]c12 | > 100 | > 48.9 | > 84.9 | > 34.7 | > 100 | > 30.5 | > 100 | > 100 | 42.1 | > 88.6 | 57.2 | 23.2 | 50.9 | > 33.8 | > 61.4 | > 100 | > 100 | 23.9 | > 100
15 | COC(=O)C(Cc1ccccc1I)C1=CCC2(CC1)OCCO2 (configuration not stated) | > 100 | > 100 | > 100 | > 100 | 92.7 | 52 | > 100 | 96.8 | 42.5 | 77.5 | > 100 | > 100 | – | – | 93.8 | 97.2 | 95.1 | 50.4 | 81.3
16 | COc1cc2c(cc1OC)C1(c3ccccc3)CN(C2)Cc2cc(OC)c(OC)cc21 | > 100 | > 100 | > 100 | > 100 | > 100 | 32.2 | 54.6 | > 100 | 60.3 | 75.5 | 80.2 | 77.6 | > 100 | > 100 | > 100 | > 100 | 68.3 | 59.6 | > 100
17 | CCCCCC(=O)OCC1(CO)C/C(=C\CC(C(C)C)C(C)C)C(=O)O1 (configuration not stated) | > 100 | > 100 | > 100 | 77.5 | > 100 | > 100 | 85.3 | > 100 | > 100 | > 100 | – | > 100 | > 100 | > 100 | > 100 | > 100 | > 100 | > 100 | > 100
18 | c1ccc2c3c([nH]c2c1)C1c2[nH]c4ccccc4c2CCN1CC3 | 31.1 | 34.2 | 31.7 | – | 30.8 | > 100 | – | – | 27 | 44.7 | > 100 | 18.7 | 32.6 | 23.3 | 27.1 | 15.4 | 28.2 | – | 25.1
19 | Cc1ccc2c(c1)[nH]c(=S)n2C=C1C(=O)CC(C)(C)CC1=O | > 100 | > 100 | > 100 | – | > 100 | > 100 | > 100 | > 100 | > 100 | > 100 | – | > 100 | > 100 | > 100 | > 100 | > 100 | > 100 | > 100 | > 100
20 | COc1ccc2c(c1)nc1n2C(c2c(F)cccc2Cl)SC1 (configuration not stated) | > 100 | > 100 | 37.2 | > 100 | > 34.8 | > 36.4 | > 35.4 | > 58.7 | > 22 | 6.4 | > 47.8 | > 100 | > 100 | > 37 | > 51.6 | > 100 | > 35 | > 24.7 | > 26.1
21 | CC(=O)OCC12C(OC(C)=O)C[C@@H](C)C3(CC(c4ccoc4)OC3=O)C1CCC(O)C21CO1 (some centres not stated) | > 100 | > 100 | > 100 | > 100 | > 100 | > 100 | > 100 | > 100 | > 100 | > 100 | > 100 | > 100 | > 100 | > 100 | > 100 | > 100 | > 100 | > 100 | > 100
22 | c1ccc2sc(C3(N4CCCCC4)CCCCCC3)cc2c1 | 52.7 | 64.2 | 21.6 | 31 | 31.9 | 36.7 | 31 | 39.4 | 28.6 | 42 | 28.7 | 76 | 41.4 | 32.8 | 29.3 | 51.8 | 43.3 | 67.2 | 37.2
23 | COc1cc(C(N)=O)cc(NC(=O)/C=C/c2ccccc2)c1OC | > 100 | > 100 | > 100 | > 100 | > 100 | > 100 | > 100 | > 100 | > 100 | > 100 | > 100 | > 100 | > 100 | > 100 | > 100 | > 100 | > 100 | > 100 | > 100
24 | CCCN(CCCCN1C(=O)c2ccccc2C1=O)CC1COc2ccccc2O1 (configuration not stated) | > 100 | > 100 | > 100 | > 100 | > 100 | 77.6 | > 100 | > 100 | > 100 | > 100 | 84.9 | > 100 | > 100 | > 100 | > 100 | > 100 | > 100 | > 100 | > 100
25 | Cc1c[nH]c(C(=O)O)c1-c1ccc2c(-c3ccccc3)nc3ccccc3n12 | 77.8 | > 100 | 76.3 | > 100 | > 100 | 66.2 | > 100 | – | 55.2 | 67.3 | – | > 100 | > 100 | > 100 | > 100 | > 100 | > 100 | > 100 | 37.4
26 | Nc1nc(NNc2ccc(Cl)c(Cl)c2)cc(=O)[nH]1 | > 100 | – | > 100 | 54.7 | 72.5 | > 100 | 68.3 | > 100 | 67.5 | > 100 | > 100 | > 100 | > 100 | > 100 | > 100 | 79.8 | > 100 | > 100 | 59.5
